Columns and labels:
[1] = molecular target: Death-associated protein kinase 3 (Homo sapiens) (UniProt O43293); experiment: Inhibition of wild-type human partial length DAPK3 (M1 to A277 residues) expressed in bacterial expression system assessed as residual activity at 1 uM by Kinomescan method relative to control
[2] = molecular target: Mitogen-activated protein kinase 7 (Homo sapiens) (UniProt Q13164); experiment: Inhibition of wild-type human partial length ERK5 (M1 to A409 residues) expressed in bacterial expression system assessed as residual activity at 1 uM by Kinomescan method relative to control
[3] = molecular target: Mitogen-activated protein kinase 15 (Homo sapiens) (UniProt Q8TD08); experiment: Inhibition of wild-type human partial length ERK8 (M1 to P437 residues) expressed in bacterial expression system assessed as residual activity at 1 uM by Kinomescan method relative to control
[4] = molecular target: Serine/threonine-protein kinase PAK 6 (Homo sapiens) (UniProt Q9NQU5); experiment: Inhibition of wild-type human partial length PAK6 (N298 to C681 residues) expressed in bacterial expression system assessed as residual activity at 1 uM by Kinomescan method relative to control
[5] = molecular target: Serine/threonine-protein kinase 10 (Homo sapiens) (UniProt O94804); experiment: Inhibition of wild-type human partial length LOK (E16 to V314 residues) expressed in bacterial expression system assessed as residual activity at 1 uM by Kinomescan method relative to control
[6] = molecular target: Serine/threonine-protein kinase STK11 (Homo sapiens) (UniProt Q15831); experiment: Inhibition of wild-type human full length LKB1 (M1 to Q433 residues) expressed in bacterial expression system assessed as residual activity at 1 uM by Kinomescan method relative to control
[7] = tested on: Tyrosine-protein kinase ABL1 (Homo sapiens), P00519 [F317L]; experiment: Inhibition of human non-phosphorylated ABL1 F317L mutant (S229 to K512 residues) expressed in mammalian expression system assessed as residual activity at 1 uM by Kinomescan method relative to control
[8] = tested on: Leucine-rich repeat serine/threonine-protein kinase 2 (Homo sapiens), Q5S007 [G2019S]; experiment: Inhibition of human partial length LRRK2 G2019S mutant (H970 to E2527 residues) expressed in mammalian expression system assessed as residual activity at 1 uM by Kinomescan method relative to control
[9] = molecular target: Dual serine/threonine and tyrosine protein kinase (Homo sapiens) (UniProt Q6XUX3); experiment: Inhibition of wild-type human full length RIPK5 (M1 to T929 residues) expressed in mammalian expression system assessed as residual activity at 1 uM by Kinomescan method relative to control
[10] = molecular target: Ribosomal protein S6 kinase alpha-2 (Homo sapiens) (UniProt Q15349); experiment: Inhibition of wild-type human partial length N-terminal RSK3 kinase domain 1 (M1 to Q385 residues) expressed in bacterial expression system assessed as residual activity at 1 uM by Kinomescan method relative to control
[11] = molecular target: Proto-oncogene tyrosine-protein kinase Src (Homo sapiens) (UniProt P12931); experiment: Inhibition of wild-type human partial length SRC (L240 to L536 residues) expressed in bacterial expression system assessed as residual activity at 1 uM by Kinomescan method relative to control
[12] = molecular target: Megakaryocyte-associated tyrosine-protein kinase (Homo sapiens) (UniProt P42679); experiment: Inhibition of wild-type human full length CTK (M43 to P508 residues) expressed in mammalian expression system assessed as residual activity at 1 uM by Kinomescan method relative to control
[13] = AUC (0 to t) in Sprague-Dawley rat at 1 mg/kg, iv by LC-MS/MS method; format: ADME, organism-based; conditions: in vivo
[14] = tested on: Proto-oncogene tyrosine-protein kinase receptor Ret (Homo sapiens), P07949 [V804L]; experiment: Inhibition of human partial length RET V804L mutant (E713 to D1014 residues) expressed in bacterial expression system assessed as residual activity at 1 uM by Kinomescan method relative to control
[15] = molecular target: Dual specificity protein kinase CLK4 (Homo sapiens) (UniProt Q9HAZ1); experiment: Inhibition of wild-type human partial length CLK4 (R135 to K481 residues) expressed in bacterial expression system assessed as residual activity at 1 uM by Kinomescan method relative to control
[16] = molecular target: Dual specificity mitogen-activated protein kinase kinase 6 (Homo sapiens) (UniProt P52564); experiment: Inhibition of wild-type human partial length MEK6 (K36 to D334 residues) expressed in bacterial expression system assessed as residual activity at 1 uM by Kinomescan method relative to control
[17] = molecular target: Non-receptor tyrosine-protein kinase TYK2 (Homo sapiens) (UniProt P29597); experiment: Inhibition of wild-type human partial length TYK2 JH2 pseudokinase domain (G556 to D888 residues) expressed in mammalian expression system assessed as residual activity at 1 uM by Kinomescan method relative to control
[18] = molecular target: Ribosomal protein S6 kinase alpha-3 (Homo sapiens) (UniProt P51812); experiment: Inhibition of wild-type human partial length C-terminal RSK2 kinase domain 2 (V402 to S715 residues) expressed in mammalian expression system assessed as residual activity at 1 uM by Kinomescan method relative to control
[19] = molecular target: Eukaryotic translation initiation factor 2-alpha kinase 1 (Homo sapiens) (UniProt Q9BQI3); experiment: Inhibition of wild-type human partial length EIF2AK1 (Q147 to E603 residues) expressed in mammalian expression system assessed as residual activity at 1 uM by Kinomescan method relative to control
[20] = tested on: Phosphatidylinositol 4,5-bisphosphate 3-kinase catalytic subunit alpha isoform (Homo sapiens), P42336 [Q546K]; experiment: Inhibition of human partial length PIK3CA Q546K mutant (R108 to N1068 residues) expressed in mammalian expression system assessed as residual activity at 1 uM by Kinomescan method relative to control
[21] = molecular target: Casein kinase I isoform alpha (Homo sapiens) (UniProt P48729); experiment: Inhibition of wild-type human partial length CSNK1A1 (M1 to L450 residues) expressed in mammalian expression system assessed as residual activity at 1 uM by Kinomescan method relative to control
U2932 = experiment: Growth inhibition of human U2932 cells; format: functional; conditions: Homo sapiens, U2932
Ramos = experiment: Growth inhibition of human Ramos cells; format: functional; conditions: Homo sapiens, Ramos
[22] = molecular target: Protein kinase C iota type (Homo sapiens) (UniProt P41743); experiment: Inhibition of wild-type human partial length PRKCI (H215 to V587 residues) expressed in mammalian expression system assessed as residual activity at 1 uM by Kinomescan method relative to control
[23] = molecular target: Cyclin-dependent kinase 3 (Homo sapiens) (UniProt Q00526); experiment: Inhibition of wild-type human full length CDK3 (M1 to H305 residues) expressed in bacterial expression system assessed as residual activity at 1 uM by Kinomescan method relative to control
[24] = molecular target: Microtubule-associated serine/threonine-protein kinase 1 (Homo sapiens) (UniProt Q9Y2H9); experiment: Inhibition of wild-type human partial length MAST1 (S346 to V730 residues) expressed in mammalian expression system assessed as residual activity at 1 uM by Kinomescan method relative to control

Megakaryocyte-associated tyrosine-protein kinase (Homo sapiens), sequence (P42679 whole entry, the tested form may be a part): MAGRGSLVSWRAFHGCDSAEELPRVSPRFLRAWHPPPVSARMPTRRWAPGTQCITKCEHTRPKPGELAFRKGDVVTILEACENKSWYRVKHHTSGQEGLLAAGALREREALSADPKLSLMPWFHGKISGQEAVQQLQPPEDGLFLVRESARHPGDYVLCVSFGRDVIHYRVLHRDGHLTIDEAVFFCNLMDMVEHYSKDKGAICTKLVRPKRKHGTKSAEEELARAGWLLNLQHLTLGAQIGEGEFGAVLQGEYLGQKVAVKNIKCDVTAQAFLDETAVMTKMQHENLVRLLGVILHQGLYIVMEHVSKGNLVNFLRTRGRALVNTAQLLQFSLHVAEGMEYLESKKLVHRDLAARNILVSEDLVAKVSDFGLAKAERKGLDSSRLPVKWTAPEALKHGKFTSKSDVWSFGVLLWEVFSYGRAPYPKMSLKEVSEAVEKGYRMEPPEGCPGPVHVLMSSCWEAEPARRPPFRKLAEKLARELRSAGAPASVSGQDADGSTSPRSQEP
Ribosomal protein S6 kinase alpha-3 (Homo sapiens), sequence (P51812 whole entry, the tested form may be a part): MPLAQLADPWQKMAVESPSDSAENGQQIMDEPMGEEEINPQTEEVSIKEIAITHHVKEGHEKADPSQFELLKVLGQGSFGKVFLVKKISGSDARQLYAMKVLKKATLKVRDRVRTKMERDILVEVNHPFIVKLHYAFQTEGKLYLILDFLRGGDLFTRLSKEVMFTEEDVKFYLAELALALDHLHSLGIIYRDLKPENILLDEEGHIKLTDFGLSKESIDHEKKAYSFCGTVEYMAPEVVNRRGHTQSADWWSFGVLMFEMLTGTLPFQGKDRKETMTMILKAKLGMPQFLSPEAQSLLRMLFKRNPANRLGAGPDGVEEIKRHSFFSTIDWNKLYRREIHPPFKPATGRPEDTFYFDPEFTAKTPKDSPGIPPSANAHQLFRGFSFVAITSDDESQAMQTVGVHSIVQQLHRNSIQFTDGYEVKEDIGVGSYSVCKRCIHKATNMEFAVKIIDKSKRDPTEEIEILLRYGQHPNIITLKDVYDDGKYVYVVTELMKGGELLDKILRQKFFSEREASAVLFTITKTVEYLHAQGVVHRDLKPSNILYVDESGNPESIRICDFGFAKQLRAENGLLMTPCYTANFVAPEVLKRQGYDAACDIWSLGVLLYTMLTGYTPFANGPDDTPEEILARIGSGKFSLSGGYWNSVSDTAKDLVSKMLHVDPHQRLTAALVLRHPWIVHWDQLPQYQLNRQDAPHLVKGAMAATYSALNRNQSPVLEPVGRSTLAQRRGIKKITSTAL
Non-receptor tyrosine-protein kinase TYK2 (Homo sapiens), sequence (P29597 whole entry, the tested form may be a part): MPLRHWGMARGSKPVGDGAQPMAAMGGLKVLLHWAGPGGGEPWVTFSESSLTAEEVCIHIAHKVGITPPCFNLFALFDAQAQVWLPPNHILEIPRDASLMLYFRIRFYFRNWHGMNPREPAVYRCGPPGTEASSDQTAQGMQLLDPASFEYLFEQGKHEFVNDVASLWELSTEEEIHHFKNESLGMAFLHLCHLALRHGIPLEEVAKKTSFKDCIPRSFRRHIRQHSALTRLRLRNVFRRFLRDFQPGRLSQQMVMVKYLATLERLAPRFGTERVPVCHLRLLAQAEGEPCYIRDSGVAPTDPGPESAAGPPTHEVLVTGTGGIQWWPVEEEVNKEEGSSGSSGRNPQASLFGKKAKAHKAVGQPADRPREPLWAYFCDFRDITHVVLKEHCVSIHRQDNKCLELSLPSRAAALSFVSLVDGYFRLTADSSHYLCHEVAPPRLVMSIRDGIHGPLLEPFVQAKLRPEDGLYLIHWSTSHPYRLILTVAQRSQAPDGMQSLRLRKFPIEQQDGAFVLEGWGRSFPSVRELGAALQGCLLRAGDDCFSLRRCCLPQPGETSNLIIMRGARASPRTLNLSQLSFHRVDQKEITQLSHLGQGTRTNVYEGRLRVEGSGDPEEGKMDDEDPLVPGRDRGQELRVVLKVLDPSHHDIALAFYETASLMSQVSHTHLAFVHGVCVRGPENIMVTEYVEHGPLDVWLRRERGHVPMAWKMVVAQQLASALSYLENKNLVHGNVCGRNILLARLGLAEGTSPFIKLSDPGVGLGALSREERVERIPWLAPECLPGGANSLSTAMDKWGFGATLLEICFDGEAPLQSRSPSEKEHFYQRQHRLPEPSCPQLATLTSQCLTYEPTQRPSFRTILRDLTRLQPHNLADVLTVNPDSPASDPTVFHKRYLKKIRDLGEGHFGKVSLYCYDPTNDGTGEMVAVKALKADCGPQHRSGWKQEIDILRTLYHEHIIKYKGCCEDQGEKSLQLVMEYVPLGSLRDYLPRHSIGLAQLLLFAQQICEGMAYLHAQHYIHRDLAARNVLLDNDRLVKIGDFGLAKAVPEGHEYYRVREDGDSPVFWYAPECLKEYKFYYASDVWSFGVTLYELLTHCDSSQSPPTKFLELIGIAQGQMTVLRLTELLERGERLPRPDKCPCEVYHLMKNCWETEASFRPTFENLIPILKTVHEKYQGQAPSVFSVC
Death-associated protein kinase 3 (Homo sapiens), sequence (O43293 whole entry, looked up, the tested form may be a part): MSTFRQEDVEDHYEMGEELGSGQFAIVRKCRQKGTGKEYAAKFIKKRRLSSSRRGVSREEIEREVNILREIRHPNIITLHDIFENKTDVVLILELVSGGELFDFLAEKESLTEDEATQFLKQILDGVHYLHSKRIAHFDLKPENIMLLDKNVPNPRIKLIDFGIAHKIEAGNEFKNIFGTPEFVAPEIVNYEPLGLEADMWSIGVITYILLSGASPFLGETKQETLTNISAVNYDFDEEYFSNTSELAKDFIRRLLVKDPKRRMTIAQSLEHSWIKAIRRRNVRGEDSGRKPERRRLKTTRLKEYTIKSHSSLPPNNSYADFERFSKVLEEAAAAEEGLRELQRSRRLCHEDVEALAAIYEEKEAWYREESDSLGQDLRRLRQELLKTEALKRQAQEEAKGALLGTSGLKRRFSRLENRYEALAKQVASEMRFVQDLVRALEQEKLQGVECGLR
Casein kinase I isoform alpha (Homo sapiens), sequence (P48729 2-337 limits assumed): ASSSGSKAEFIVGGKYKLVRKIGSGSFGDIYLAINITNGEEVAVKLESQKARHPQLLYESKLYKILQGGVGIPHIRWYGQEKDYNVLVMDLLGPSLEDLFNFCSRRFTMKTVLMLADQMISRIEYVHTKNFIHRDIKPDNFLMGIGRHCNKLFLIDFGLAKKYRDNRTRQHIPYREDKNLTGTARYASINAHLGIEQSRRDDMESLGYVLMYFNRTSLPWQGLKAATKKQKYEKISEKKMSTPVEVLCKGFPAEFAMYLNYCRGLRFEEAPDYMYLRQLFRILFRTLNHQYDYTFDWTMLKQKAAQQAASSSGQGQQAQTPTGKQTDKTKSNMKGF
Proto-oncogene tyrosine-protein kinase Src (Homo sapiens), sequence (P12931 2-536 limits assumed): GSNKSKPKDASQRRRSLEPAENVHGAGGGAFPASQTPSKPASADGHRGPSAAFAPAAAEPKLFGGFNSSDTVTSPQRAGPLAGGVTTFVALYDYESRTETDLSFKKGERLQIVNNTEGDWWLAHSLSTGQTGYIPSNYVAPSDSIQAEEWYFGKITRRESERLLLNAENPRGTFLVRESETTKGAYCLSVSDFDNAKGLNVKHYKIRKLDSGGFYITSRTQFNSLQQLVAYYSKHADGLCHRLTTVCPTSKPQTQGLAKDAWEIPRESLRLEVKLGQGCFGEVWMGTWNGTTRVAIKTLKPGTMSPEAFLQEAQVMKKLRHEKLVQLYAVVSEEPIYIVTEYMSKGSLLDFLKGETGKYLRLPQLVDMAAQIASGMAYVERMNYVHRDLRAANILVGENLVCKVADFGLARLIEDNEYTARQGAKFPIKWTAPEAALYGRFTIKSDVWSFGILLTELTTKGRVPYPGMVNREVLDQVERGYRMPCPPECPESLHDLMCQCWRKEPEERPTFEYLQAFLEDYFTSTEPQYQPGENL
Serine/threonine-protein kinase STK11 (Homo sapiens), sequence (Q15831 whole entry, the tested form may be a part): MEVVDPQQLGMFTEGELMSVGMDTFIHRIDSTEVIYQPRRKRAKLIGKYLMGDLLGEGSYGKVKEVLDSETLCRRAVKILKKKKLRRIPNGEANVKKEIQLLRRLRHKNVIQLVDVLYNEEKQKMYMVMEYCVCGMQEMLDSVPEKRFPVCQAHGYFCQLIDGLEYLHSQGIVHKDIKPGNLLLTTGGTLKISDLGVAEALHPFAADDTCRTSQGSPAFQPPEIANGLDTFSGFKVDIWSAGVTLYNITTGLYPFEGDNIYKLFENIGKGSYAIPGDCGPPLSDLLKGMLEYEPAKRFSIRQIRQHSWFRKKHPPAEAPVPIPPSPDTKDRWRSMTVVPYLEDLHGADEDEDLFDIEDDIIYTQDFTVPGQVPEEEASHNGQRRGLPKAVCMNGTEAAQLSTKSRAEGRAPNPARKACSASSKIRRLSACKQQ
Cyclin-dependent kinase 3 (Homo sapiens), sequence (Q00526 whole entry, looked up, the tested form may be a part): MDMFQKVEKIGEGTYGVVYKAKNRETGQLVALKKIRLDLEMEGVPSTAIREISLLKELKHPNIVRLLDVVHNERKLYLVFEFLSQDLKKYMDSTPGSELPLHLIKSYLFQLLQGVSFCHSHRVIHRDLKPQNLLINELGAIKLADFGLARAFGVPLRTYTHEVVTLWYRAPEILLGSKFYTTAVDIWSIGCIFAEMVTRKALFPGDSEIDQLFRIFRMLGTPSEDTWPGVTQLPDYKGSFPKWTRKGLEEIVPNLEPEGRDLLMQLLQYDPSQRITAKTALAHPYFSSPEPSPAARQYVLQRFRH
Dual specificity protein kinase CLK4 (Homo sapiens), sequence (Q9HAZ1 whole entry, looked up, the tested form may be a part): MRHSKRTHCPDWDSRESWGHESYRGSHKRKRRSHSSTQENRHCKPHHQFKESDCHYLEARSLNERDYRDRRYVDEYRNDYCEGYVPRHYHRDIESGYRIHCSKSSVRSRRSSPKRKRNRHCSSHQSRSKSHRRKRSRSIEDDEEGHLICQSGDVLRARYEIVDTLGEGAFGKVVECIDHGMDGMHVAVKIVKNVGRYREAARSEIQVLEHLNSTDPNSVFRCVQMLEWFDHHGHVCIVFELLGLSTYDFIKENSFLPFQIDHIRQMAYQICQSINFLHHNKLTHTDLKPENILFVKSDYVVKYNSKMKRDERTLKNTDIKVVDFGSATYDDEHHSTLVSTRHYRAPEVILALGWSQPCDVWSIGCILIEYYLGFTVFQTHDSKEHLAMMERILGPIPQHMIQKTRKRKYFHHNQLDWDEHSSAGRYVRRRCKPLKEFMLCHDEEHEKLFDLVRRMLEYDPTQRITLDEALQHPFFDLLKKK

`C=CC(=O)Nc1cc(Nc2cc(-c3cccc(NC(=O)c4ccc(C(C)(C)C)cc4)c3C)cn(C)c2=O)ccc1C(=O)N1CCOCC1` showed an Activity [1] of 100%, an Activity [2] of 99% and an Activity [3] of 100%. For the same compound, the Activity [4] was 100%, the Activity [5] was 94% and the Activity [6] was 98%. The Activity [7] was 88%, the Activity [8] was 58% and the Activity [9] was 90%. It also gave an Activity [10] of 92%, an Activity [11] of 99% and an Activity [12] of 100%. The AUC(0-t) [13] was 182 ng·h/mL, the Activity [14] was 100% and the Activity [15] was 90%. For the same compound, the Activity [16] was 100%, the Activity [17] was 86% and the Activity [18] was 96%. The Activity [19] was 84%, the Activity [20] was 87% and the Activity [21] was 100%. The GI50 (U2932) was 2400 nM, the GI50 (Ramos) was 3500 nM and the Activity [22] was 100%. It also gave an Activity [23] of 97% and an Activity [24] of 98%.

From ChEMBL document CHEMBL4024706 (Eur J Med Chem, 2017)
